≈ marks a conversion by molar mass, not a printed value. Calls of active or inactive are those of the source. No cut-off for these calls is given here.
Legend:
Saccharomyces cerevisiae [1] = assay: Antifungal activity against recombinant Saccharomyces cerevisiae Y2513 overexpressing ScErg11 Y140H mutant assessed as inhibition of fungal growth incubated for 48 hrs by CLSI based broth microdilution assay; format: functional
Saccharomyces cerevisiae [2] = assay: Antifungal activity against recombinant Saccharomyces cerevisiae Y2459 overexpressing CaErg11/CaCpr assessed as inhibition of fungal growth incubated for 48 hrs by CLSI based broth microdilution assay; format: functional
Saccharomyces cerevisiae [3] = assay: Antifungal activity against recombinant Saccharomyces cerevisiae Y2766 overexpressing CauCdr1 assessed as inhibition of fungal growth incubated for 48 hrs by CLSI based broth microdilution assay; format: functional
[4] = biological target: T1, Lanosterol 14-alpha demethylase (Candida albicans (strain SC5314 / ATCC MYA-2876) (Yeast), UniProt P10613); assay: Inhibition of CYP51 in Candida albicans SC5314 assessed as 14alpha-methylfecosterol level at 0.5 ug/ml after 8 hrs by GC-MS analysis relative to control; set-up: scale not given: the % may be the effect or the level left; details: at 0.5 µg/mL
[Candida] auris [5] = Antifungal activity against fluconazole-resistant Candida auris 891 assessed as inhibition of fungal growth incubated for 48 hrs by CLSI based broth microdilution assay; format: functional; details: Candidozyma auris
Saccharomyces cerevisiae [6] = assay: Antifungal activity against recombinant Saccharomyces cerevisiae Y2711 overexpressing CnErg11 assessed as inhibition of fungal growth incubated for 48 hrs by CLSI based broth microdilution assay; format: functional
Candida albicans [7] = assay: Antifungal activity against Candida albicans 10231 assessed as inhibition of fungal growth incubated for 48 hrs by CLSI based broth microdilution assay; format: functional
Saccharomyces cerevisiae [8] = assay: Antifungal activity against recombinant Saccharomyces cerevisiae Y2301 overexpressing ScErg11 Y140F mutant assessed as inhibition of fungal growth incubated for 48 hrs by CLSI based broth microdilution assay; format: functional
Candida albicans [9] = assay: Antifungal activity against Candida albicans SC5314 assessed as inhibition of hyphae length at 1 ug/ml after 3 hrs by inverted microscopic analysis; format: functional, organism-based; details: dose 1.0 µg/ml
Candida parapsilosis = assay: Antifungal activity against Candida parapsilosis 22019 assessed as inhibition of fungal growth incubated for 48 hrs by CLSI based broth microdilution assay; format: functional; details: Lodderomyces parapsilosis
Candida albicans [10] = assay: Antifungal activity against Candida albicans SC5314 assessed as inhibition of fungal growth at 0.125 ug/ml after 12 hrs by TECAN plate reader analysis; format: functional, organism-based; details: dose 0.125 µg/ml
Saccharomyces cerevisiae [11] = assay: Antifungal activity against recombinant Saccharomyces cerevisiae Y2716 overexpressing CpErg11 Y132F mutant/ CpCpr assessed as inhibition of fungal growth incubated for 48 hrs by CLSI based broth microdilution assay; format: functional
Saccharomyces cerevisiae [12] = assay: Antifungal activity against recombinant Saccharomyces cerevisiae Y2462 overexpressing ScErg11/ScNcp1 assessed as inhibition of fungal growth incubated for 48 hrs by CLSI based broth microdilution assay; format: functional
Saccharomyces cerevisiae [13] = assay: Antifungal activity against recombinant Saccharomyces cerevisiae Y2411 overexpressing ScErg11 assessed as inhibition of fungal growth incubated for 48 hrs by CLSI based broth microdilution assay; format: functional
Cell membrane [14] = assay: Induction of membrane permeabilization in Candida albicans SC5314 assessed as increase in fluorescence at 0.5 ug/ml incubated for 8 hrs by propidium iodide staining based fluorescence microscopic analysis; details: dose 0.5 µg/ml
Candida albicans [15] = assay: Antifungal activity against fluconazole-resistant Candida albicans 904 assessed as inhibition of fungal growth incubated for 48 hrs by CLSI based broth microdilution assay; format: functional
Candida albicans [16] = assay: Antifungal activity against Candida albicans SC5314 assessed as inhibition of fungal growth at 2 ug/ml after 36 hrs by TECAN plate reader analysis; format: functional, organism-based; details: dose 2.0 µg/ml
[17] = biological target: T1, Lanosterol 14-alpha demethylase; assay: Inhibition of CYP51 in Candida albicans SC5314 assessed as obtusifoliol level at 0.5 ug/ml after 8 hrs by GC-MS analysis relative to control; set-up: scale not given: the % may be the effect or the level left; details: at 0.5 µg/mL
[18] = biological target: T1, Lanosterol 14-alpha demethylase; assay: Inhibition of CYP51 in Candida albicans SC5314 assessed as ergosterol level at 0.5 ug/ml after 8 hrs by GC-MS analysis (reference value: 86.2 %); set-up: scale not given: the % may be the effect or the level left; details: at 0.5 µg/mL
Candida albicans [19] = assay: Antibiofilm activity against Candida albicans SC5314 assessed as inhibition of biofilm formation at 64 ug/mL incubated for 24 hrs by XTT assay relative to control; format: functional
Candida albicans [20] = assay: Antifungal activity against Candida albicans SC5314 assessed as inhibition of hyphae formation at 0.0625 to 0.5 ug/ml after 3 hrs by inverted microscopic analysis; format: functional, organism-based; details: dose 0.0625-0.5 µg/ml
Cryptococcus neoformans = assay: Antifungal activity against Cryptococcus neoformans 32609 assessed as inhibition of fungal growth incubated for 72 hrs by CLSI based broth microdilution assay; format: functional
Saccharomyces cerevisiae [21] = assay: Antifungal activity against recombinant Saccharomyces cerevisiae Y525 overexpressing CaMdr1 assessed as inhibition of fungal growth incubated for 48 hrs by CLSI based broth microdilution assay; format: functional
Saccharomyces cerevisiae [22] = assay: Antifungal activity against recombinant Saccharomyces cerevisiae Y2721 overexpressing CpErg11/CpCpr assessed as inhibition of fungal growth incubated for 48 hrs by CLSI based broth microdilution assay; format: functional
Candida albicans [23] = assay: Antifungal activity against Candida albicans SC5314 assessed as inhibition of hyphae length at 0.0625 to 0.5 ug/ml after 3 hrs by inverted microscopic analysis; format: functional, organism-based; details: dose 0.0625-0.5 µg/ml
Saccharomyces cerevisiae [24] = assay: Antifungal activity against recombinant Saccharomyces cerevisiae Y2767 overexpressing CauErg11 assessed as inhibition of fungal growth incubated for 48 hrs by CLSI based broth microdilution assay; format: functional
Candida tropicalis = assay: Antifungal activity against Candida tropicalis 8915 assessed as inhibition of fungal growth incubated for 48 hrs by CLSI based broth microdilution assay; format: functional
Pichia kudriavzevii = assay: Antifungal activity against Candida krusei 4996 assessed as inhibition of fungal growth incubated for 48 hrs by CLSI based broth microdilution assay; format: functional
Saccharomyces cerevisiae [25] = assay: Antifungal activity against recombinant Saccharomyces cerevisiae Y2769 overexpressing CauErg11 K143R mutant assessed as inhibition of fungal growth incubated for 48 hrs by CLSI based broth microdilution assay; format: functional
[Candida] auris [26] = Antifungal activity against fluconazole-resistant Candida auris 918 assessed as inhibition of fungal growth incubated for 48 hrs by CLSI based broth microdilution assay; format: functional; details: Candidozyma auris
Candida albicans [27] = assay: Antibiofilm activity against Candida albicans SC5314 assessed as increase in matured biofilm distruption at 64 ug/ml incubated for 24 hrs by XTT assay relative to control; format: functional; details: dose 64 µg/ml
Saccharomyces cerevisiae [28] = assay: Antifungal activity against recombinant Saccharomyces cerevisiae Y2765 overexpressing CauMdr1 assessed as inhibition of fungal growth incubated for 48 hrs by CLSI based broth microdilution assay; format: functional
Candida albicans [29] = assay: Antifungal activity against Candida albicans SC5314 assessed as inhibition of fungal growth incubated for 48 hrs by CLSI based broth microdilution assay; format: functional
Saccharomyces cerevisiae [30] = assay: Antifungal activity against recombinant Saccharomyces cerevisiae Y570 overexpressing CaCdr1 assessed as inhibition of fungal growth incubated for 48 hrs by CLSI based broth microdilution assay; format: functional
Candida albicans [31] = assay: Antifungal activity against Candida albicans SC5314 assessed as inhibition of hyphae formation by measuring pseudohyphae at 1 ug/ml after 3 hrs by inverted microscopic analysis; format: functional, organism-based; details: dose 1.0 µg/ml
[Candida] auris [32] = Antifungal activity against fluconazole-resistant Candida auris 919 assessed as inhibition of fungal growth incubated for 48 hrs by CLSI based broth microdilution assay; format: functional; details: Candidozyma auris
Candida albicans [33] = assay: Antifungal activity against fluconazole-resistant Candida albicans 901 assessed as inhibition of fungal growth incubated for 48 hrs by CLSI based broth microdilution assay; format: functional
Nakaseomyces glabratus = assay: Antifungal activity against Candida glabrata 537 assessed as inhibition of fungal growth incubated for 48 hrs by CLSI based broth microdilution assay; format: functional
Saccharomyces cerevisiae [34] = assay: Antifungal activity against recombinant Saccharomyces cerevisiae Y2300 overexpressing ScErg11 assessed as inhibition of fungal growth incubated for 48 hrs by CLSI based broth microdilution assay; format: functional
[35] = biological target: T1, Lanosterol 14-alpha demethylase; assay: Inhibition of CYP51 in Candida albicans SC5314 assessed as eburicol level at 0.5 ug/ml after 8 hrs by GC-MS analysis relative to control; set-up: scale not given: the % may be the effect or the level left; details: at 0.5 µg/mL
[36] = Cytotoxicity against HUVEC cells assessed as cell viability at 128 ug/ml incubated for 24 hrs by CCK-8 assay relative to control; format: toxicity, cell-based; details: human, at 128 µg/mL, read-out: Activity
Saccharomyces cerevisiae [37] = assay: Antifungal activity against recombinant Saccharomyces cerevisiae Y2768 overexpressing CauErg11 T132F mutant assessed as inhibition of fungal growth incubated for 48 hrs by CLSI based broth microdilution assay; format: functional
[38] = biological target: T1, Lanosterol 14-alpha demethylase; assay: Inhibition of CYP51 in Candida albicans SC5314 assessed as lanosterol level at 0.5 ug/ml after 8 hrs by GC-MS analysis (reference value: 5.9 %); set-up: scale not given: the % may be the effect or the level left; details: at 0.5 µg/mL
Saccharomyces cerevisiae [39] = assay: Antifungal activity against recombinant Saccharomyces cerevisiae Y2374 overexpressing CgErg11 assessed as inhibition of fungal growth incubated for 48 hrs by CLSI based broth microdilution assay; format: functional
Cell membrane [40] = assay: Induction of membrane permeabilization in Candida albicans SC5314 assessed as increase in fluorescence at 4 ug/ml incubated for 8 hrs by propidium iodide staining based fluorescence microscopic analysis; details: dose 4.0 µg/ml

T1 sequence (P10613 whole entry): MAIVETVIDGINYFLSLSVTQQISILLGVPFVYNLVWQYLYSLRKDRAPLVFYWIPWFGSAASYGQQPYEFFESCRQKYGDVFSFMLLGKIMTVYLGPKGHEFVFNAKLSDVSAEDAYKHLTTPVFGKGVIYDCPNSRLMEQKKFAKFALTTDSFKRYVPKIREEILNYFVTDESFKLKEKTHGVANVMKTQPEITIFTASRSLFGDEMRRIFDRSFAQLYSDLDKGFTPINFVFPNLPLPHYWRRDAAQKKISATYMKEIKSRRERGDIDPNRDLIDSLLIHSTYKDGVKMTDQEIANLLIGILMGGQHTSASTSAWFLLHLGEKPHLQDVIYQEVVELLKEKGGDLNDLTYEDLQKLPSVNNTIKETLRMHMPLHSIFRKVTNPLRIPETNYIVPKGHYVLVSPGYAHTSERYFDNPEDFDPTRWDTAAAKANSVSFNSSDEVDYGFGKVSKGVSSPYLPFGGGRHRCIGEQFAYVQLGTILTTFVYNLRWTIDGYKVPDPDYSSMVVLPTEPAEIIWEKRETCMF

Question: With `OC(Cn1cncn1)(Cn1cncn1)c1ccc(F)cc1F` [FLUCONAZOLE] as the molecule, how does the MIC (Saccharomyces cerevisiae [1]) read?
Answer: Its MIC is 4 µg/mL.

Question: What about the MIC (Saccharomyces cerevisiae [2]) of the same molecule?
Answer: Its MIC is 2 µg/mL.

Question: And the MIC (Saccharomyces cerevisiae [3])?
Answer: Its MIC is greater than 64 µg/mL.

Question: And the Activity [4]?
Answer: Its Activity is 20%.

Question: What about the MIC ([Candida] auris [5]) of the same molecule?
Answer: Its MIC is greater than 256 µg/mL.

Question: What about the MIC (Saccharomyces cerevisiae [6]) of the same molecule?
Answer: Its MIC is 0.5 µg/mL.

Question: And the MIC (Candida albicans [7])?
Answer: Its MIC is greater than 64 µg/mL.

Question: And the MIC (Saccharomyces cerevisiae [8])?
Answer: Its MIC is 4 µg/mL.

Question: What about the inhibition (Candida albicans [9]) of the same molecule?
Answer: Its inhibition is “Active”.

Question: And the MIC (Candida parapsilosis)?
Answer: The MIC was 4 µg/mL (≈ 13.1 µM).

Question: What about the inhibition (Candida albicans [10]) of the same molecule?
Answer: Its inhibition is “inactive”.

Question: What about the MIC (Saccharomyces cerevisiae [11]) of the same molecule?
Answer: Its MIC is 8 µg/mL.

Question: What about the MIC (Saccharomyces cerevisiae [12]) of the same molecule?
Answer: Its MIC is 8 µg/mL.

Question: And the MIC (Saccharomyces cerevisiae [13])?
Answer: Its MIC is 1 µg/mL.

Question: And the Activity (Cell membrane [14])?
Answer: Its Activity is “inactive”.

Question: And the MIC (Candida albicans [15])?
Answer: The MIC was greater than 256 µg/mL.

Question: And the inhibition (Candida albicans [16])?
Answer: Its inhibition is “inactive”.

Question: And the Activity [17]?
Answer: The Activity was 2%.

Question: And the Activity [18]?
Answer: Its Activity is 39.8%.

Question: And the inhibition at 64 µg/mL (Candida albicans [19])?
Answer: Its inhibition at 64 µg/mL is roughly 28%.

Question: And the inhibition (Candida albicans [20])?
Answer: The inhibition was “inactive”.

Question: And the MIC (Cryptococcus neoformans)?
Answer: The MIC was 2 µg/mL (≈ 6.53 µM).

Question: What about the MIC (Saccharomyces cerevisiae [21]) of the same molecule?
Answer: The MIC was greater than 64 µg/mL.

Question: And the MIC (Saccharomyces cerevisiae [22])?
Answer: The MIC was 4 µg/mL.

Question: What about the inhibition (Candida albicans [23]) of the same molecule?
Answer: The inhibition was “inactive”.

Question: What about the MIC (Saccharomyces cerevisiae [24]) of the same molecule?
Answer: The MIC was 4 µg/mL.

Question: And the MIC (Candida tropicalis)?
Answer: Its MIC is greater than 64 µg/mL.

Question: And the MIC (Pichia kudriavzevii)?
Answer: Its MIC is 64 µg/mL (≈ 209 µM).

Question: What about the MIC (Saccharomyces cerevisiae [25]) of the same molecule?
Answer: The MIC was 32 µg/mL.

Question: What about the MIC ([Candida] auris [26]) of the same molecule?
Answer: The MIC was greater than 256 µg/mL.

Question: What about the Activity (Candida albicans [27]) of the same molecule?
Answer: Its Activity is 38%.

Question: What about the MIC (Saccharomyces cerevisiae [28]) of the same molecule?
Answer: Its MIC is 64 µg/mL.

Question: What about the MIC (Candida albicans [29]) of the same molecule?
Answer: The MIC was 0.5 µg/mL (≈ 1.63 µM).

Question: What about the MIC (Saccharomyces cerevisiae [30]) of the same molecule?
Answer: The MIC was greater than 64 µg/mL.

Question: And the inhibition (Candida albicans [31])?
Answer: Its inhibition is “Active”.

Question: What about the MIC ([Candida] auris [32]) of the same molecule?
Answer: The MIC was greater than 256 µg/mL.

Question: What about the MIC (Candida albicans [33]) of the same molecule?
Answer: The MIC was greater than 256 µg/mL.

Question: What about the MIC (Nakaseomyces glabratus) of the same molecule?
Answer: Its MIC is 1 µg/mL (≈ 3.27 µM).

Question: And the MIC (Saccharomyces cerevisiae [34])?
Answer: Its MIC is 4 µg/mL.

Question: And the Activity [35]?
Answer: The Activity was 2%.

Question: And the viability at 24 h, 128 ug/ml [36]?
Answer: The viability at 24 h, 128 ug/ml was 83%.

Question: And the MIC (Saccharomyces cerevisiae [37])?
Answer: Its MIC is 64 µg/mL.

Question: What about the Activity [38] of the same molecule?
Answer: The Activity was 38%.

Question: What about the MIC (Saccharomyces cerevisiae [39]) of the same molecule?
Answer: The MIC was 4 µg/mL.

Question: What about the Activity (Cell membrane [40]) of the same molecule?
Answer: Its Activity is “Active”.

Reference: ChEMBL document CHEMBL5579851, “Synthesis and antifungal evaluation of novel triazole derivatives bearing a pyrazole-methoxyl moiety” (Eur J Med Chem, 2024)
